# Assay results published in patent US20240335464A1, “ADMINISTRATION OF STING AGONIST, CHECKPOINT INHIBITORS, AND RADIATION” (Takeda Pharmaceutical Company Limited, priority 2020, published 2024).
# Test system: B16F10 ova melanoma tumor
# Test: Study 5: B16F10-Ova subcutaneous tumor model, anti-tumor efficacy
# Format: in vivo, female C57Bl/6 mice
# Conditions: for GRI (%) (Day 10): vs vehicle
# Procedure: Study 5: B16F10-Ova is a cell line derived from B16F10 melanoma that expresses chicken ovalbumin. Seven-week-old female C57Bl/6 mice (Jackson Labs, Maine) were inoculated subcutaneously with 0.04×10^6 B16F10 ova tumor cells and monitored for tumor growth. Once the tumors reached an average of 100-250 mm^3, animals were irradiated with either mock irradiation or 16 Gy of focal beam irradiation (Study Day 0). Animals were then dosed intravenously with either vehicle (PBS) or 0.25 mg/kg of Compound No. 14 on a Q3Dx3 scheduled beginning on Study Day 1. Animals were monitored for tumor volumes and body weight changes twice weekly throughout the study once they reached their humane endpoint. GRI was calculated on the last day with animals remaining in the vehicle group (Study Day 10).
# Study 5: A 5 mg/mL stock solution of Compound No. 14 was formulated in PBS at the final concentration of 0.0667 mg/mL and administered intravenously (IV). Final doses received were 0.25 mg/kg. […] Compound No. 14 was administered on a Q3D schedule for 3 doses in single agent treatment group and in combination treatment groups beginning on Day 1. Dose formulation of Compound No. 14 was prepared once and utilized for dosing on each treatment day.
# Studies 4 and 5: Radiation treatment for Studies 4 and 5 were performed using focal beam radiation with volumentric image guidance from computer tomography scans on the SmART (Small animal image-guided radiotherapy) platform (Precision XRay Inc., North Branford, CT). Animals received 4.52 Gy/min of radiation and approximately 1.8 min was needed to reach 8 Gy dose delivery (Study 4) or […] was needed to reach 16 Gy dose delivery (Study 5). Animals were anesthetized during imaging and radiation treatment using 1-2% isoflurane.
# Growth Rate Inhibition: The differences in the tumor growth trends over time between pairs of treatment groups were assessed by fitting each animal's data to a simple exponential growth model and comparing the mean growth rates of the two groups, as described in more detail below. The difference in the growth rates was summarized by the GRI, which is the reduction in growth rate experienced by the treatment group relative to that of the reference group, expressed as a fraction of the vehicle growth rate.
# μT and μC are the mean tumor growth rates for the treatment and reference groups, respectively. μV is the mean tumor growth rate for the vehicle group, which in most cases is the same as the reference group.
# A GRI greater than 100% is interpreted as tumor regression when the vehicle group is the same as the reference group. A negative value of the GRI means that the tumors in the treatment group grew faster than the tumors in the reference group. Statistical significance was determined using an unpaired t-test.
# Tumor Growth Rate Computation: Low tumor volumes can cause problems with the data analysis, so all measurements below 25 cubic mm (including 0 values) were excluded from the analysis. After this exclusion step, the tumor volume was assumed to follow an exponential growth model. More specifically, for a given animal and treatment group,
# where Vi is the tumor volume at the i^th time point. Here, a is the initial log volume, b is the tumor growth rate, and t1 is the measurement time in days. εi is the residual error term, which was assumed to be uncorrelated and drawn from a normal distribution.
# This model was fit separately for each animal within each treatment group. If an animal was sacrificed or died early, but at least two unique time points were measured (including baseline), then the data up to that point was used to estimate the growth rate. If the animal had measurements at less than two time points, then the animal was automatically excluded from the analysis.
# In rare cases, the estimated growth rate for one or more animals might be very different from the other animals within the same group. […]
# [1] = TG02 Compound No.14 0.25 mg/kg Q3Dx3 IV, single agent
# [2] = TG04 Compound No.14 0.25 mg/kg Q3Dx3 IV + radiation 16 Gy, through Day 10
compound,measurement,setting,value
Nc1ncnc2c1ncn2[C@@H]1O[C@@H]2COP(=O)(S)O[C@@H]3[C@H](O)[C@@H](COP(=O)(S)O[C@H]2[C@H]1F)O[C@H]3n1cc(F)c2c(=O)[nH]cnc21 (stereo partly drawn) [Compound No. 14],Number of Animals Removed,[1],4
same,GRI (%) (Day 10),[1],11%
same,Number of Animals Removed,TG04 Compound No.14 0.25 mg/kg Q3Dx3 IV + radiation 16 Gy,0
same,GRI (%) (Day 10),TG04 Compound No.14 0.25 mg/kg Q3Dx3 IV + radiation 16 Gy (Day 0),67%
same,Combination Assessment,[2],Additive
same,Synergy Score %,[2],−21%
